# Laboratory results: PubChem BioAssay AID1918938 (Molecular Pharmacology Branch, DTP, NCI, 2023)
# Several values for one entry are separate records, joined by “and”; a condition that tells them apart may be missing. Equal values may be shown once.
# Test system: 556581-035-R-J1-PDC complex spheroid viability
# Test: Anticancer human tumor 556581-035-R-J1-PDC patient-derived ovarian carcinoma cell line growth inhibition
# Settings: for viability, T/C: stronger effect = lower value
# Text: Multicellular complex tumor spheroid response to LSD1 Inhibitor Iadademstat in combination with a variety of drugs and investigational agents in selected tumor cell lines
# The current study was undertaken to assess response to LSD1 inhibitors in combination with standard-of-care drugs and investigational agents in solid tumor complex spheroid models as well as in the K-562 leukemia. Complex spheroids include a stromal component modeled by human endothelial cells (HUVEC) and fibroblasts modeled by human mesenchymal stem cells (MSCs). The concentration ranges selected for each drug and investigational agent were based upon clinically achievable concentrations if the clinical Cmax of the agent was known.
# Compounds. The drugs and investigational agents used in this study are listed on Table 1. All of the agents used, including staurosporine (NSC755774) and gemcitabine (NSC613327), were obtained from the Developmental Therapeutics Program, NCI. FDA-approved anticancer drugs are available from the NCI at http://dtp.nci.nih.gov/branches/dscb/oncology_drugset_explanation.html. Drugs and investigational agents were >95% pure by proton nuclear magnetic resonance (NMR) and liquid chromatography/mass spectrometry (LC/MS). Stock solutions were prepared at 400x in DMSO, stored at -70 degrees C, and diluted in fresh medium prior to their use. The final concentration of DMSO in cell culture wells never exceeded 0.25% (v/v). The FDA-approved anticancer drug set is available from the Developmental Therapeutics Program at https://dtp.cancer.gov/organization/dscb/obtaining/available_plates.htm. All drugs and investigational agents were tested over a range starting from a high concentration at or near the clinical Cmax and decreasing in half-log increments. If the clinical Cmax for an agent had not been determined, the highest concentration tested was 10 microM.
# Cell Lines. The patient-derived cancer cell (PDC) lines: 292921-168-R-J2-PDC, K24384-001-R-PDC, and 521955-158-R2-J5-PDC pancreatic carcinomas, 556581-035-R-J1 ovarian carcinoma, 324938-238-R-J1-PDC, 855422-203-R-J1-PDC and 883617-216-R-J1-PDC urothelial bladder carcinomas, 743489-274-T-PDC renal cell carcinoma, 138582-R-J1 Merkel cell tumor, K60290-347-R-J1 and K57222-313-R-J1-PDC glioblastomas, 653999-131-R-J2-PDC, LG0703-F948-PDC, and 349418-098-R-PDC non-small cell lung carcinomas, 885512-296-R-J2-PDC, 171881-019-R-J1-PDC breast carcinomas and 186277-243-T-J2-PDC and 233499-124-R-J2-PDC colon carcinomas were obtained from the NCI Patient-Derived Models Repository (PDMR, https://pdmr.cancer.gov). The established cell lines NCI/ADR-RES (RRID:CVCL_14520 and OVCAR-5 (RRID:CVCL_1628) ovarian carcinomas, 786-O (RRID:CVCL_1051) and A498 (RRID:CVCL_A498) renal cell carcinoma, NCI-H211 (ATCC, cat. CRL-5824; RRID:CVCL_1529), NCI-H196 (ATCC, cat. CRL-5823, RRID:CVCL_1509), SW 1271 (ATCC, cat. CRL-2177, RRID:CVCL_1716) and NCI-H1876 (ATCC, cat. CRL-5902, RRID:CVCL_1503) small cell lung carcinomas, MDA-MB-231 (RRID:CVCL_0062) and MDA-MB-468 (RRID:CVCL_0419)breast carcinomas (10-12). Pooled donor human umbilical vein endothelial cells (HUVEC, Lonza, cat. CC-2519) and human mesenchymal stem cells (hMSC, Lonza, cat. PT-2501) were purchased from Lonza (Walkersville, MD).
# Cell Culture. All cells were maintained in an incubator at 37 degrees C and 5% CO2 with 95% humidity. The PDC lines were cultured according to standard operating procedures established by the NCI PDMR (https://pdmr.cancer.gov). Briefly all PDCs were thawed and cultured in Matrigel-coated flasks prepared with a working solution of 1X Ham's F-12 nutrient mix, without supplementation (Invitrogen, Waltham, MA, cat. 11765054), 100 U/mL penicillin-streptomycin (Invitrogen, cat. 15140122), and 2.5% Matrigel (Corning Inc., Corning, NY, cat. 354248) for the first three passages. […]
# 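Also: spheroids exposed to agents for seven days.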
# 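For viability, T/C in this document: 100% = DMSO vehicle control wells.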
SMILES,IC50 (curve of compound),"viability, T/C (compound 0.00316 µM)","viability, T/C (compound 0.01 µM)","viability, T/C (compound 0.0316 µM)","viability, T/C (compound 0.1 µM)","viability, T/C (compound 0.316 µM)","viability, T/C (compound 1 µM)","viability, T/C (compound 0.00949 µM)","viability, T/C (compound 0.03 µM)","viability, T/C (compound 0.0949 µM)","viability, T/C (compound 0.3 µM)",further results
CC(C)CC(NC(=O)CNC(=O)c1cc(Cl)ccc1Cl)B1OC(=O)CC(CC(=O)O)(C(=O)O)O1 (stereo not given),0.00406 µM and 0.00291 µM,63.3% and 46%,2.06% and 2.7%,0.74% and 1.23%,0.66% and 0.61%,,,,,,,"viability, T/C (compound 0.000316 µM): 99.8% and 102%; viability, T/C (compound 0.001 µM): 98.2% and 102%"
CC1(C)CCC(CN2CCN(c3ccc(C(=O)NS(=O)(=O)c4ccc(NCC5CCOCC5)c([N+](=O)[O-])c4)c(Oc4cnc5[nH]ccc5c4)c3)CC2)=C(c2ccc(Cl)cc2)C1,4.47 µM and 5.04 µM,,,97.5% and 84.5%,95.1% and 89.4%,85.2% and 79.3%,81% and 90.1%,,,,,"viability, T/C (compound 3.16 µM): 68.8% and 79.1%; viability, T/C (compound 10 µM): 13.5% and 7.08%"
CCN(c1cc(-c2ccc(CN3CCOCC3)cc2)cc(C(=O)NCc2c(C)cc(C)[nH]c2=O)c1C)C1CCOCC1,2.01 µM and 0.895 µM,,,,,,,101% and 102%,105% and 88.1%,87.8% and 88.1%,81.4% and 79.2%,"viability, T/C (compound 0.949 µM): 60.2% and 46.9%; viability, T/C (compound 3 µM): 44.3% and 24.2%"
COc1cc(C2c3cc4c(cc3C(OC3OC5COC(C)OC5C(O)C3O)C3COC(=O)C23)OCO4)cc(OC)c1O (stereo not given),0.62 µM and 0.176 µM,,,,,,,89% and 94.3%,82.8% and 76.5%,70% and 56.9%,65.7% and 40.6%,"viability, T/C (compound 0.949 µM): 41.2% and 33.2%; viability, T/C (compound 3 µM): 23.5% and 15.7%"
COc1cc(Nc2ncc3c(n2)-c2ccc(Cl)cc2C(c2c(F)cccc2OC)=NC3)ccc1C(=O)O,,68.5% and 68.6%,67.9% and 49.6%,78.5% and 43.2%,60.9% and 45.6%,51.1% and 41.2%,39.2% and 29.9%,,,,,
COc1ccc([C@@H](O)c2cc(-c3ncnc4cc(N5CCOCC5)ccc34)c(F)cc2Cl)nn1,0.993 µM and 1.07 µM,,,91.9% and 89.7%,83.5% and 83.2%,66.5% and 63.4%,50.3% and 48.7%,,,,,"viability, T/C (compound 3.16 µM): 36.8% and 42.1%; viability, T/C (compound 10 µM): 29.6% and 27.5%"
Cn1ncnc1C1c2n[nH]c(=O)c3cc(F)cc(c23)NC1c1ccc(F)cc1 (stereo not given),> 0.1 µM,105% and 86.9%,108% and 86.5%,93.6% and 103%,98.9% and 91.4%,,,,,,,"viability, T/C (compound 0.000316 µM): 102% and 114%; viability, T/C (compound 0.001 µM): 118% and 97.2%"
NC1CC1c1ccc(-c2cccc(O)c2)cc1 (stereo not given),,,,,91.5% [middle of 4 runs],,,,,,,"viability, T/C (compound 3.16 µM): 89.2% [middle of 24 runs]; IC50 (compound alone, run of 02/21/2022): > 10 µM"
NC1CCC(NC2CC2c2ccccc2)CC1 (stereo not given),,,,,,85.1% and 84.9%,,,,,,"IC50 (compound alone, run of 02/15/2022): > 10 µM"
Nc1ccn(C2OC(CO)C(O)C2(F)F)c(=O)n1 (stereo not given),0.00264 µM and 0.00198 µM,,,,,,,36% and 23.9%,36.7% and 26.2%,40.7% and 26.8%,35.3% and 23.3%,"viability, T/C (compound 0.000949 µM): 73.7% and 82.5%; viability, T/C (compound 0.003 µM): 48.6% and 31.7%"
Nc1ncn(C2CC(O)C(CO)O2)c(=O)n1 (stereo not given),> 1 µM,98.7% and 115%,102% and 100%,108% and 99.9%,84.2% and 79.4%,88.6% and 107%,80.9% and 101%,,,,,
Nc1ncn(C2CC(O)C(CO)S2)c(=O)n1 (stereo not given),0.184 µM and 0.048 µM,,,,,,,94.5% and 81.4%,75.4% and 63.8%,56.8% and 32.5%,45.3% and 17.8%,"viability, T/C (compound 0.000949 µM): 92.4% and 104%; viability, T/C (compound 0.003 µM): 110% and 102%"
O=C(C=Cc1cccc(S(=O)(=O)Nc2ccccc2)c1)NO,0.111 µM and 0.0684 µM,,,,,,,88.8% and 89.7%,77.9% and 83.8%,54.2% and 35.2%,23.9% and 15.3%,"viability, T/C (compound 0.949 µM): 1.68% and 0.7%; viability, T/C (compound 3 µM): 0.32% and 3.39%"
O=C(C=Cn1cnc(-c2cc(C(F)(F)F)cc(C(F)(F)F)c2)n1)NNc1cnccn1,0.329 µM and 0.0676 µM,84.8%,82.9% and 87.8%,83.4% and 74%,68.8% and 37.2%,,15.9% and 3.46%,,,,,

# Second part, led by results:
IC50 (curve of compound),SMILES,"viability, T/C (compound 0.00316 µM)","viability, T/C (compound 0.01 µM)","viability, T/C (compound 0.0316 µM)","viability, T/C (compound 0.1 µM)","viability, T/C (compound 0.316 µM)","viability, T/C (compound 1 µM)","viability, T/C (compound 0.00949 µM)","viability, T/C (compound 0.03 µM)","viability, T/C (compound 0.0949 µM)","viability, T/C (compound 0.3 µM)",further results
< 0.000316 µM,CC(C)CC(NC(=O)C(Cc1ccccc1)NC(=O)c1cnccn1)B(O)O (stereo not given),1.04% and 0.46%,0.22% and 0.28%,0.85% and 0.24%,0.44% and 0.39%,,,,,,,"viability, T/C (compound 0.000316 µM): 7.73% and 2.05%; viability, T/C (compound 0.001 µM): 0.26% and 0.43%"
> 10 µM,CC(C)c1c(-c2ccccc2)nc2c(C#N)c[nH]n2c1=O,,,93.8% and 102%,105% and 100%,107%,91.4% and 101%,,,,,"viability, T/C (compound 3.16 µM): 75.4% and 90.9%; viability, T/C (compound 10 µM): 72.7% and 71.9%"
0.0529 µM and 0.00858 µM,CC1COCCN1c1cc(-c2ccnn2C)c2ccnc(-c3ccn[nH]3)c2n1 (stereo not given),70% and 55.8%,65.8% and 55.1%,51.8% and 34.4%,42.8% and 25.6%,36.3% and 26.9%,14.7% and 9.75%,,,,,
> 10 µM,CC1COCCN1c1cc(C2(S(C)(=N)=O)CC2)nc(-c2ccnc3[nH]ccc23)n1 (stereo not given),,,107%,110% and 94.2%,95.2% and 97.8%,79.8% and 74.4%,,,,,"viability, T/C (compound 3.16 µM): 68.2% and 69.1%; viability, T/C (compound 10 µM): 62.3% and 52.5%"
0.0152 µM and 0.00617 µM,CC[C@@]1(O)C(=O)OCc2c1cc1n(c2=O)Cc2cc3c(CN(C)C)c(O)ccc3nc2-1,78.7% and 73.8%,57.1% and 32.2%,35.8% and 14%,10% and 7.12%,,,,,,,"viability, T/C (compound 0.000316 µM): 95.5% and 101%; viability, T/C (compound 0.001 µM): 96.8% and 101%"
< 0.000949 µM,CCc1c2c(nc3ccc(O)cc13)-c1cc3c(c(=O)n1C2)COC(=O)[C@]3(O)CC,,,,,,,2.19% and 1.59%,0.61% and 0.44%,0.29% and 0.42%,0.34% and 0.39%,"viability, T/C (compound 0.000949 µM): 17.5% and 12%; viability, T/C (compound 0.003 µM): 11.2% and 9.45%"
> 3 µM and 0.407 µM,NS(=O)(=O)OCC1CC(n2ccc3c(NC4CCc5ccccc54)ncnc32)CC1O (stereo not given),,,,,,,121% and 104%,122% and 77%,111% and 74%,106% and 51.3%,"viability, T/C (compound 0.949 µM): 91.9% and 37.8%; viability, T/C (compound 3 µM): 56.7% and 38%"
0.133 µM and 0.0978 µM,Nc1ccccc1NC(=O)c1ccc(CNC(=O)OCc2cccnc2)cc1,,,,,,,88.5% and 100%,82% and 76.7%,56.3% and 50.2%,30.6% and 28.9%,"viability, T/C (compound 0.949 µM): 13.6% and 7.68%; viability, T/C (compound 3 µM): 1.18% and 0.51%"
> 10 µM,O=C(c1cc(Cc2n[nH]c(=O)c3ccccc23)ccc1F)N1CCN(C(=O)C2CC2)CC1,,,95.3% and 96.8%,94.3% and 94.5%,98.2% and 89.4%,98.1% and 89.3%,,,,,"viability, T/C (compound 3.16 µM): 87.5% and 78.2%; viability, T/C (compound 10 µM): 75.2% and 64.5%"
